Tested on: HSV-1
Assay: HOE 140 in combination with acyclovir on HSV-1 skin lesions in hairless mice, Experiment 24/94
Assay type: in vivo
Conditions: acyclovir 0.05% orally day 3-7, no HOE 140
Experimental: Investigation of the Action of HOE 140 on Skin Lesions Caused by HSV-1 in Hairless Mice in Combination with Acyclovir
HOE 140 was administered twice daily either topically as a 2% strength cream in a neutral base or subcutaneously with 2 mg/kg per dosage. Acyclovir was administered as a 0.05% strength solution in the drinking water.
Administration of acyclovir day 3-7
Administration of HOE 140 day 3-7 or 0-7

For `Nc1nc2c(ncn2COCCO)c(=O)[nH]1` [Acyclovir, acyclovir], the “Average survival time” value was 7.3 ± 1.2 days, the Survivors/group size (chi^2 test not significant) was 2/8 and the “Animals with zoster formation” value (group size 8) was 7.

Source: patent US5789383A, “Bradykinin antagonists for the prophylaxis or treatment of virus diseases” (Hoechst Aktiengesellschaft, priority 1993, dated 1998)
